Laboratory results reported in US20240299584A1, “NON-CODING RNA PROTECTING AGAINST HEART FAILURE” (MEDIZINISCHE HOCHSCHULE HANNOVER, priority 2019, published 2024).
Entries after “also recorded” stand apart in the source; their conditions may differ.

Columns and labels:
HL-1 cells [1] = test: RT-qPCR expression in HL-1 cells; format: cell-based, mouse; details: for expression of circ-Insr: 24 h, epirubicin 1 and 5 μM, daunorubicin 1.25 and 2.5 μM, paclitaxel 0.1 and 0.5 μM
Description: HL-1 cells were cultured in Claycomb medium together with 10% FBS, norepinephrine, L-Glutamine and pencillin/streptomycin as manufacturer's protocol. 3T3 and RAW264.7 cells were cultured in DMEM with 10% FBS and pencillin/streptomycin. Neonatal rat cardiomyocytes (NRCM) were isolated from one to three-day old rat babies by using the Neonatal Heart Dissociation Kit (Miltenyi). Human iPSC derived cardiomyocytes (hiPSC-cm) were differentiated at the lab of IMTTS. […] NRCM and hipsc-CM were transduced by AAV6 (MOI: 1*10^4) for 72 hours.
(§1) RNA isolation from cell culture and heart tissue was done using Trifast (Peqlab) as per the manufacturer's instructions. Isolated RNA (500 ng-1000 ng) was reversed transcribed with random primer using iScript Select cDNA synthesis kit (Biorad). Real-Time quantative PCR was done with iQ SYBR Green mix (Biorad) on C1000 Touch Thermocycler (Biorad) using specific primer pairs. For amplification of circular RNAs, divergent primers were used while normal linear transcripts were amplified by convergent primers as usual. For RNase R resistant assay RNA was incubated with RNase R (Biozym Scientific) at 37° C. for 10 minutes and heat […] at 95° C. for three minutes. RNA was then reverse transcribed and amplified by specific PCR primers as mentioned before.

[2] = Body weight changes in doxorubicin cardiotoxicity mouse model; format: in vivo; details: doxorubicin and vehicle treated mice
Description: (§5) The AAV-circINSR construct was packaged into AAV9 and injected adult male mice (12 weeks) with a single dose of 2×10^12 viral genomes/mouse or with the same amount of AAV9-empty control vectors. After two weeks to allow full AAV mediated gene expression, the mice received a cumulative dose of 25 mg/kg/bw doxorubicin over a course of 5 weeks and were sacrificed 1 week later after echocardiography was performed (FIG. 4A).
(§6) C57BL/6 N mice of 8 weeks of age were injected (intraperitoneally) with doxorubicin at a dose of 5 mg/kg once a week for consecutive 5 weeks. One week later after the last doxorubicin treatment, echocardiography data were recorded by an independent blinded researcher using the Vevo 2100 system (Fujifilm Visulasonics, Inc). […] Echocardiography data were analyzed using standard imaging protocols (M-mode and B-mode) for global cardiac volumes and functioning using the Vevostrain software (Fujifilm Visulasonics, Inc). […] AAV9 (adeno-associated virus serotype 9) was injected (intravenously) 2 weeks before first doxorubicin injection. Animal experiments were randomized and blinded with an internal number.

mouse heart = test: RT-qPCR expression analysis in mouse heart tissue; format: in vivo
Description: as §1

circulating circINSR = test: circINSR level in mouse plasma; format: in vivo; details: doxorubicin vs PBS control
Description: NcRNAs can be released into the extra-cellular space through passive mechanisms (e.g. necrosis of cells) or actively within secreted microvesicles^20. Since they can be readily isolated and measured from body fluids such as blood, these circulating ncRNAs have gained much attention as potential biomarkers for various diseases^21, 22. Indeed, ot was possible to detect circINSR in human and murine plasma (FIG. 9A,B). Strikingly, levels of circulating circINSR were diminished in mice treated with doxorubicin, which warrants further investigation of circINSR as a marker for anthracycline-related heart failure. Then the presence of circINSR in exosomes isolated from HL-1 cell culture supernatants was tested. […] To further corroborate the findings, a circINSR knock-out cell line was generated. Using a dual guideRNA CRISPR/Cas9 approach the majority of the circINSR forming exon was excised (FIG. 18A,B). Expectedly, this not only abrogated circINSR expression but also INSR protein expression (FIG. 18C,D). Then this cell line was used to overexpress circINSR via transfection with pcDNA3.1.
RNA isolation from cell culture and heart tissue was done using Trifast (Peqlab) as per the manufacturer's instructions. Isolated RNA (500 ng-1000 ng) was reversed transcribed with random primer using iScript Select cDNA synthesis kit (Biorad). […]

apoptotic cardiomyocytes = test: TUNEL and cardiac troponin T co-staining of heart sections; format: in vivo, mouse; details: transversal heart sections, doxorubicin model; circINSR given as AAV9
Description: (§2) In addition to apoptosis, doxorubicin is known to cause cardiomyocyte atrophy^12 (G). Thus, histopathology analyses were performed on transversal heart section.
Cells were fixed with 4% paraformaldehyde for twenty minutes at room temperature and then permeabilized with ice-cold 0.1% Triton-X-100 in PBS for two minutes at room temperature. Next cells were incubated with enzyme labelling solution provided with In Situ cell death detection kit (Roche) for 1 hour at 37° C. For negative staining, enzyme was not added to the labelling solution. Cells were then washed and incubated with Dapi for 15 minutes. To specifically label neonatal rat cardiomyocytes and hipsc-CM, cells were co-stained with cardiac Troponin T (Thermofisher) after Tunel staining. Images were taken with Nikon Eclipse Ti microscope and images were analyzed with NIS Elements. For analysis in each case, ten different images were analyzed from different regions and average value was taken. Similarly, cryosections of heart were also processed for staining. Numerous images covering complete heart section was taken and Tunel positive nuclei were counted in each field. Average value for each heart was calculated.

cardiomyocytes = test: Cardiomyocyte size on wheat germ agglutinin stained heart sections; format: in vivo, mouse; details: WGA stained heart sections, doxorubicin model; circINSR given as AAV9
Description: as §2
Cryosections of heart were stained with Alexa Fluor 488 labelled wheat germ agglutinin (Invitrogen) and dapi. Images were taken with Nikon Eclipse Ti microscope and images were analyzed with NIS Elements. For each heart 5 to 10 images were randomly taken from different regions of the section and minimum two hundred cells were measured and average value was taken for each heart.

HL-1 cells [3] = test: Annexin V & 7-AAD staining (apoptosis); format: cell-based, mouse; details: HL-1 cells treated with doxorubicin 0.25 μM 48 h
Description: (§3) HL-1 cells were cultured in Claycomb medium together with 10% FBS, norepinephrine, L-Glutamine and pencillin/streptomycin as manufacturer's protocol. 3T3 and RAW264.7 cells were cultured in DMEM with 10% FBS and pencillin/streptomycin. Neonatal rat cardiomyocytes (NRCM) were isolated from one to three-day old rat babies by using the Neonatal Heart Dissociation Kit (Miltenyi). Human iPSC derived cardiomyocytes (hiPSC-cm) were differentiated at the lab of IMTTS. All the cells were treated with 0.25 μM Doxorubicin (Sigma-Aldrich) for 48 hours. circ-Insr siRNA (Eurofins), in vitro circular RNA and overexpression plasmid were transfected with Lipofectamine 2000 (Life Technologies) in OptiMEM medium. NRCM and hipsc-CM were transduced by AAV6 (MOI: 1*10^4) for 72 hours.
FlowCellect Annexin Red kit (Millipore) was used to stain apoptotic cells as per the manufacturer instruction. Briefly, cells were seeded in 12 well plate and next day treated with 0.25 μM Doxorubicin in normal medium with 10% FBS for forty-eight hours. Then cells were trypsinized and harvested and stained with Annexin-V for 15 minutes at 37° C. in 1× assay buffer. Annexin-V stained cells were centrifuged and washed with 1× assay buffer. Next cells were incubated with 7-AAD for 5 minutes and acquired on Guava (Millipore) flow cytometer. Data was analyzed with FLOWJO software.

HL-1 cells [4] = test: WST-1 assay (cell viability); format: cell-based, mouse; details: HL-1 cells treated with doxorubicin 0.25 μM 48 h
Description: as §3
WST-1 assay was performed using Cell Proliferation Reagent WST-1 (Roche) as per the manufacturer instruction. Briefly, HL-1 cells were seeded in 96 well plate and next day treated with 0.25 μM Doxorubicin in normal medium with 10% FBS for forty-eight hours. Next, 10 μL WST1 reagent was added and incubated for 1 hour followed by the absorbance measurement (450 nm) at HT Synergy (Biotek) plate reader.

HL-1 cells [5] = test: mtDNA copy number measurement; format: cell-based, mouse; details: doxorubicin 0.25 μM 48 h, circ-Insr by overexpression plasmid
Description: (§4) Based on the results of the foregoing examples, it was reasoned that circ-Insr could interact with SSBP1. To further confirm the interaction between circ-Insr and SSBP1, siRNA mediated circ-Insr knock-down was applied in HL-1 cells. Next, RNA pulldown was performed with circ-Insr and scramble biotinylated probes. RT-qPCR confirmed that decrease of circ-Insr appeared both in input and circ-Insr pulldown group (FIG. 23A). […] Therefore, we assumed that circ-Insr is a cofactor of SSBP1 resulting in the regulation of mitochondrial function in cardiomyocytes by stabilizing mtDNA. […] Furthermore, mito-damage assay was applied to measure the changes in mitochondrial membrane potential (MMP). […] Next, we co-transfected HL-1 cells with pcDNA-circ-Insr and SSBP1 siRNA and examined cell viability using the WST assay to explore whether SSBP1 participated in the circ-Insr overexpression-mediated therapy of doxorubicin-cardiotoxicity. RT-qPCR indicated SSBP1 siRNA could downregulate endogenous SSBP1 expression (FIG. 23G).
The ratio of mtDNA to genomic DNA was calculated by dividing copies of CYTB with copies of ACTB in each experiment (Li J, Chan M C, Yu Y, Bei Y H, Chen P, Zhou Q L, et al. miR-29b contributes to multiple types of muscle atrophy. Nature communications. 2017; 8). […] Fluorescence was measured during the last step of each cycle using the SYBR channel. […]

HL-1 cells [6] = test: Mito-damage assay, mitochondrial membrane potential; format: cell-based, mouse; details: doxorubicin 0.25 μM 48 h
Description: as §4

[7] = human patients; cited from earlier work
C57BL/6 N mice = test: Echocardiography in mouse model of chronic doxorubicin-induced cardiotoxicity
Description: as §5, §6

[8] = doxorubicin treated mice, in words

Compound: COc1cccc2c1C(=O)c1c(O)c3c(c(O)c1C2=O)C[C@@](O)(C(=O)CO)C[C@@H]3O[C@H]1C[C@H](N)[C@@H](O)[C@H](C)O1 [epirubicin]
- expression of circ-Insr (HL-1 cells [1]): significant downregulation

Compound: COc1cccc2c1C(=O)c1c(O)c3c(c(O)c1C2=O)C[C@@](O)(C(=O)CO)C[C@@H]3O[C@H]1C[C@H](N)[C@H](O)[C@H](C)O1 [doxorubicin]
- body weight [2]: significantly halted the weight gain
- Brca1 mRNA expression in hearts (mouse heart; doxorubicin treated mice vs PBS control): significantly lower levels
- circINSR expression in heart (mouse heart; mouse heart, doxorubicin 5 mg/kg once a week for 5 weeks): significant decrease; also recorded: downregulation
- levels of circulating circINSR (circulating circINSR): diminished
- apoptotic cardiomyocytes (TUNEL / cTNT) (apoptotic cardiomyocytes): strong induction of apoptosis
- cardiomyocyte size (cardiomyocytes): atrophic response
- apoptotic cells (Annexin V) (HL-1 cells [3]): increased the number of apoptotic cells
- cell viability (WST-1) (HL-1 cells [4]): significantly diminished; also recorded: impair
- circINSR expression (HL-1 cells [1]; doxorubicin 0.25 μmol/L 48 h): downregulation
- mtDNA copy number / mtDNA content (HL-1 cells [5]): significantly reduced
- mitochondrial membrane potential (MMP) (HL-1 cells [6]): impair
- underlying cause in heart transplantation patients, share of all cases [7]: 2-3%
- Fractional Shortening (C57BL/6 N mice; Mean, mice with doxorubicin, cumulative 25 mg/kg over 5 weeks): significant reduction
- left ventricular anterior and posterior wall thickness (C57BL/6 N mice; [8]): decreased
- left ventricular volume (C57BL/6 N mice; [8]): increased

Compound: CC(=O)O[C@H]1C(=O)[C@@]2(C)[C@H]([C@H](OC(=O)c3ccccc3)[C@]3(O)C[C@H](OC(=O)[C@H](O)[C@@H](NC(=O)c4ccccc4)c4ccccc4)C(C)=C1C3(C)C)[C@]1(OC(C)=O)CO[C@@H]1C[C@@H]2O [paclitaxel]
- expression of circ-Insr (HL-1 cells [1]): no change

Compound: COc1cccc2c1C(=O)c1c(O)c3c(c(O)c1C2=O)C[C@@](O)(C(C)=O)C[C@@H]3O[C@H]1C[C@H](N)[C@H](O)[C@H](C)O1 [daunorubicin]
- expression of circ-Insr (HL-1 cells [1]): significant downregulation
